Here are results for four compounds from patent US20240408073A1, “METHODS FOR TREATING A TRAUMA PATIENT” (Beth Israel Deaconess Medical Center, Inc., priority 2021, published 2024).

In data set [1] the test system is PMN. The data set is described as follows: PMN CTX (chemotaxis) transwell assay. Format: cell-based, human. The procedure:
Human PMN were isolated from freshly withdrawn peripheral blood of healthy volunteers, as described previously. In brief, heparinized whole blood (10 U/ml) was centrifuged at 200×g for 10 min. The buffy coat and RBC were layered onto 1-Step Polymorphs (AN221725, Accurate Chemical & Scientific Corp, Carle Place, NY, USA), followed by centrifugation at 500×g for 30 min. The PMN layer was collected and diluted with an equal volume of 0.45% NaCl to restore osmolarity for 5 min at room temperature. The suspensions were then washed in RPMI 1640 and centrifuged at 200×g for 10 min. RBC in pellet were lysed with ice-cold 0.2% NaCl for 20 sec and the same volume of 1.6% NaCl was applied to end lysis. Cells were centrifuged again at 200×g for 10 min to collect PMN. PMN were resuspended in physiological solutions depending on the next functional study.
CTX assay PMN CTX was studied in […]. 1×10^5 PMN in 75 μL of RPMI with 2% heat-inactivated FBS were applied to the upper chamber and 150 μL of the same media containing indicated chemoattractants were applied to the lower chamber. mtDNA application was done at RT, rotating for 15 min. […] Cells were incubated (37° C., 5% CO2) for 60 min. PMN were then collected from the lower chambers, centrifuged (500×g, 5 min, RT) and re-suspended in 200 μL of cell lysis solution (×1/20) with CyQUANT GR dye (×1/400) in water for 15 min at RT (C7026, Thermo Fisher Scientific). PMN numbers were evaluated in 96-well plates using 480 nm excitation and 520 nm emission with known numbers of PMN for standard curve.

For data set [2] the following is noted: cited from earlier work; for Drug-drug interactions: VAL with PAR, clinical settings; for Bioavailability: both by parenteral and enteral routes.
Data set [3] concerns human PMN. The data set is described as follows: Bacterial phagocytosis assay by flow cytometry. Type of data set: cell-based. The note with it: drug 30 min, then mtDNA 15 min; FIG. 4A. (In general: Flow cytometry measures light scatter and fluorescence of single cells or particles in a stream.)
Data set [4] concerns Formyl Peptide Receptor-1 (FPR1). As to the kind of experiment: Flow cytometry for surface expression of FPR1 on human PMN. The note with it: FIG. 9G. Format: cell-based. The procedure:
Finally, PMN were incubated with fluorescein (FITC)-conjugated anti-human FPR1 antibody (FAB3744F, LifeSpan BioSciences Inc., Seattle, WA), phycoerythrin (PE)-conjugated anti-human CXCR2 antibody (FAB331P, LifeSpan BioSciences Inc.), or PE-conjugated anti-human BLT1 antibody (FAB099P, LifeSpan BioSciences Inc.) in the dark for 30 min at room temperature. FITC-conjugated isotype antibody (400210, BioLegend, San Diego, CA) or PE-conjugated isotype antibody (400212, BioLegend) was used as a negative control. Allophycocyanin (APC)—conjugated anti-human CD16 antibody (360705, BioLegend) was used to confirm PMN identification.

For the next data set, the system named is Staphylococcus aureus. The data set is described as follows: Mouse trauma (laparotomy + liver crush) plus intratracheal Staphylococcus aureus lung infection. The note with it: PAR 20 mg/kg. Type of data set: in vivo, CD-1 mice. As for the experimental part:
Following 48 hr acclimatization, 8-9 week-old male CD-1 mice (body weight 30-32 g) underwent laparotomy followed by crushing of the left lobe of liver 8 times using a sterile forceps. […] Mice were sacrificed 18 h later and bronchoalveolar lavage (BAL) fluid (BALF) was collected by tracheal irrigation with 1 mL of PBS. The collected BALF was centrifuged; the pellet was diluted to count the number of immune cells; and the supernatant was then separated and applied to agar plates to count the remaining bacteria. Experiments were repeated as noted and data were combined.

Data set [5] relates to human PMN. The data set is described as follows: Actin polymerization assay by rhodamine phalloidin staining. Format: cell-based. The conditions noted are these: FIG. 5. The procedure:
Actin polymerization was studied using an F-Actin Visualization Biochem Kit (Cytoskeleton, Inc., Denver, CO, USA) according to the manufacturer's instructions. Briefly, PMN were applied to glass slides (Thermo Fisher Scientific) pre-coated with 0.1% poly-L-lysine solution ([…], MilliporeSigma) in H2O. Then 200 μL of Fixative solution was added to the slides and incubated for 10 min at RT. After washing with 200 μL of Wash buffer for 30 sec at RT, 200 μL of Permeabilization Buffer was added to the slides and incubated for 5 min at RT. Then, the cells were stained with rhodamine phalloidin for 30 min at RT in dark. The slides were then washed with Wash buffer and Hoechst 33342 (1:1,000 in PBS) was applied to stain nucleus. Followed by 3 times of washing, 20 μL of Mounting medium was added to the center of each slide and a coverslip was put on. Clear nail polish was used to seal coverslips. The actin filaments were observed using AxioImager Epifluorescence Microscope (Zeiss, Jena, Germany) at excitation 535 nm and emission 585 nm.

The subject of data set [6] is human PMN. As to the kind of experiment: Bacterial phagocytosis assay by colony-forming unit (CFU) count. The conditions noted are these: drug 30 min, then mtDNA 15 min; for PMN uptake of Sa in co-culture suppressed by mtDNA (PMN lysis/agar plate): FIG. 4B; for Sa killing / clearance of Sa from co-culture media suppressed by mtDNA: FIG. 4C. Type of data set: cell-based. The procedure: Before the CFU count of bacteria, Staphylococcus aureus (Sa) were opsonized with autologous serum from the PMN donor. OD600=0.1 were determined as 10^8 CFU/mL according to previous measurements. […] Then, Sa were incubated with PMN at 1:1 ratio in 1 mL 0.9% NaCl supplemented with human serum for 30 min rotating. […] The supernatant was collected separately, centrifuged at 5000×g for 10 min to pellet bacteria. The bacteria were applied on agar plates and after 18 hrs the bacterial colonies were counted.

Data set [7] relates to PMN. As to the kind of experiment: NETosis of PMN incubated with trauma plasma, induced by PMA. The note with it: post-treatment 30 min after plasma, FIG. 9F. Format: cell-based, human.
A further data set deals with cortactin. As to the kind of experiment: Western blot of acetylated cortactin in PMN. Format: cell-based, human. The conditions noted are these: PAR in conjunction with mtDNA; FIG. 3H. As for the experimental part: Briefly, PMN samples were dissolved in Pierce RIPA lysis buffer (25 mM Tris HCl pH 7.6, 150 mM NaCl, 1% NP-40, 1% sodium deoxycholate, 0.1% SDS) (Thermo Fisher Scientific, Waltham, MA, USA) containing Halt Protease & Phosphatase Inhibitor Cocktail (Thermo Fisher Scientific) for 20 min on ice, followed by centrifugation at […] for 20 min at 4° C. Then, the supernatant was collected, concentration was measured using a Pierce BCA Protein Assay Kit (Thermo Fisher Scientific). After mixing and boiling (95° C., 10 min) protein lysate with appropriate amount of 6×Laemmli SDS-sample buffer (J61337, Alfa Aesar, Tewksbury, MA, USA) according to the protein concentration, 40 μg of protein lysates were separated by SDS/PAGE and transferred to nitrocellulose membranes contained in an iBlot Transfer Stack kit (IB301002, Thermo Fisher Scientific). […] After being incubated with their appropriate secondary antibodies conjugated with horseradish peroxidase (HRP) the following day, the immunoblot signals were detected by application of the Amersham ECL Prime Western Blotting Detection Reagent kit (Cytiva, Marlborough, MA, USA) in a ChemiDoc Imaging System (Bio-Rad, Hercules, CA, USA). Quantification of blots were performed using Image J v.1.53i (National Institute of Health, Bethesda, MD, USA).
A general note: A western blot detects proteins with antibodies after separation by electrophoresis.

Data set [8] concerns PMN. As to the kind of experiment: PMN respiratory burst in trauma patient plasma. Format: cell-based, human. The note with it: FIG. 9E.
The target in a further data set is T1, HDAC6 (Homo sapiens, UniProt Q9UBN7).
T1 construct: endogenous in cells; host or cells: PMN
T1 sequence (Q9UBN7 1-1215): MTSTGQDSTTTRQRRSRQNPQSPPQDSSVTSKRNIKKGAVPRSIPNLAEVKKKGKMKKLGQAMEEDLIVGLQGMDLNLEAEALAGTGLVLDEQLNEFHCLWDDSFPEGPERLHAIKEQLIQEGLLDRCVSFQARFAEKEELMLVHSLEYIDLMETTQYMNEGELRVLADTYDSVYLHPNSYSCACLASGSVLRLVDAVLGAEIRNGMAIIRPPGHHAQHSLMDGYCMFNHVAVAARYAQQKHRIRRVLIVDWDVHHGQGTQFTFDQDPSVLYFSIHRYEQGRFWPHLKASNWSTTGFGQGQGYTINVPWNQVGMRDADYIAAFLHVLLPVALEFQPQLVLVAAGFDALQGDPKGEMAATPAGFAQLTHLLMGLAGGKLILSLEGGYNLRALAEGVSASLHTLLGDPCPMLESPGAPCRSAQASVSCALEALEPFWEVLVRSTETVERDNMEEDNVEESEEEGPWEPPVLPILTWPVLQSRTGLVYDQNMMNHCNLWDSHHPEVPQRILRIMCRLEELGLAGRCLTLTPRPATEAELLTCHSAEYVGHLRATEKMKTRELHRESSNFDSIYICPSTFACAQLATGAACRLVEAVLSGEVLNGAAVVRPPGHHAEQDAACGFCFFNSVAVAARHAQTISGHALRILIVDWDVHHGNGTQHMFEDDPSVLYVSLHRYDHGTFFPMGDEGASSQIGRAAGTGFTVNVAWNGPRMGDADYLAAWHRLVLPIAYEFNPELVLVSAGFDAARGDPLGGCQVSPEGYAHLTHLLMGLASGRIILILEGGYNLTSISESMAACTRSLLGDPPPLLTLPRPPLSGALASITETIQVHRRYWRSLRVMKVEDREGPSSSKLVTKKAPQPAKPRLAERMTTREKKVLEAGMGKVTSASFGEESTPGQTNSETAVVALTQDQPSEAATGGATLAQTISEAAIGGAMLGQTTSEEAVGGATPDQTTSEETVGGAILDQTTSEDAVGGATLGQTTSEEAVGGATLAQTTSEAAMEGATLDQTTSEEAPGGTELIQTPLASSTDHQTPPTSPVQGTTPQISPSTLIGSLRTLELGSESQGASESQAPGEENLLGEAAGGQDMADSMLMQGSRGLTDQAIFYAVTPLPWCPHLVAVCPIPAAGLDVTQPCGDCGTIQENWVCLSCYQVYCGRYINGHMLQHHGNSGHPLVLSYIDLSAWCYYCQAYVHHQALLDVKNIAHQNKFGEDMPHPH
The data set is described as follows: HDAC6 activation.

Setting [9] is: inhibitor 30 min prior to mtDNA, N=6.

Consider `CCN(CC)CCCC(C)Nc1ccnc2cc(Cl)ccc12` (stereo not drawn) [CQ, chloroquine], for which, in the data set with PMN [1] (FIG. 1B, dependence on endosomal acidification), the “Suppressive effect of mtDNA on PMN chemotaxis” value is listed as “blocked”.
As to `COC(=O)c1ccc(C=Cc2ccc([N+](=O)[O-])o2)o1` [GRKi, methyl 5-[2-(5-nitro-2-furyl)vinyl]-2-furoate], in the data set on PMN [1] (setting [9]), the “mtDNA-induced suppression of PMN CTX to GRO-α” value is listed as “rescued” and the “mtDNA-induced suppression of PMN CTX to LTB4” value is “rescued”.
For the compound `Fc1ccc([C@@H]2CCNC[C@H]2COc2ccc3c(c2)OCO3)cc1` [PAR, paroxetine], in data set [2], the Drug-drug interactions entry was “no drug-drug interactions” and the Bioavailability entry is “excellent”. Further, the “Phagocytosis of SYTO9 labeled Staphylococcus aureus by human PMN suppressed by mtDNA (flow cytometry)” value with human PMN [3] is “restored phagocytosis”. Also, the “FPR1 surface expression suppressed by ND6” value in data set [4] was “diminish FPR1 regulation by ND6”. Moreover, the “Lung bacterial clearance (Sa CFU in BAL, % of uninjured controls)” value with Staphylococcus aureus (post-treatment i.p. 30 min post-injury, VPA 80 mg/kg, alone or combined) is given as “did not confer significant protection”. In addition, the “Lung bacterial clearance (Sa CFU in BAL)” value in the data set on Staphylococcus aureus (pre-treatment i.p. 30 min prior to injury, Sa i.t. 4 h after trauma) is reported as “significantly prevented infection”. Also, in the data set on human PMN [5], the “F-actin polymerization response to LTB4 inhibited by mtDNA” value was “rescued”. Also, in the data set with human PMN [6], the “PMN uptake of Sa in co-culture suppressed by mtDNA (PMN lysis/agar plate)” value is given as “restored phagocytosis” and the “Sa killing / clearance of Sa from co-culture media suppressed by mtDNA” value is reported as “restored Sa killing”. Further, in the data set on PMN [7], the “NET formation (NETosis) suppressed by trauma plasma” value is reported as “minor reversals”. For the same compound, in the data set with cortactin, the “Acetylated cortactin (ac-cortactin) level” value is “blocks mtDNA suppression of ac-cortactin”. For the same compound, the “PMN respiratory burst (RB) suppressed by trauma plasma” value (shortened to “PMN respiratory burst (RB) suppressed”) in the data set with PMN [8] (post-treatment) is on record as “ineffective”. The “PMN respiratory burst (RB) suppressed” value in the data set on PMN [8] (pre-treatment) is “can rescue RB”. Moreover, in the data set with PMN [1] (N=6), the “Suppression of PMN CTX to LTB4 after ND6 exposure” value is on record as “rescued”. Further, the “mtDNA-induced suppression of PMN CTX to LTB4” value in the data set with PMN [1] (setting [9]) is on record as “rescued”.
For the compound `CCCC(CCC)C(=O)O` [VPA, valproic acid], in data set [2], the Drug-drug interactions result is given as “no drug-drug interactions” and the Bioavailability entry is reported as “excellent”. In addition, in data set [2] (human, in vivo), the T1/2 of elimination was 8 to 17 h. Besides, the “Phagocytosis of SYTO9 labeled Staphylococcus aureus by human PMN suppressed by mtDNA (flow cytometry)” value in the data set on human PMN [3] is “reverse mtDNA-mediated suppressive effects on bacterial phagocytosis and killing”. The “FPR1 surface expression suppressed by ND6” value in data set [4] is recorded as “diminish FPR1 regulation by ND6”. Also, the “F-actin polymerization response to LTB4 inhibited by mtDNA” value with human PMN [5] is given as “rescued”. For the same compound, in the data set on human PMN [6], the “PMN uptake of Sa in co-culture suppressed by mtDNA (PMN lysis/agar plate)” value is “reverse mtDNA-mediated suppressive effects on bacterial phagocytosis and killing”; the “Sa killing / clearance of Sa from co-culture media suppressed by mtDNA” value is “reverse mtDNA-mediated suppressive effects on bacterial phagocytosis and killing”. Moreover, the “NET formation (NETosis) suppressed by trauma plasma” value in the data set with PMN [7] was “minor reversals”. Also, the “PMN respiratory burst (RB) suppressed” value in the data set on PMN [8] (post-treatment) was “ineffective”. The “PMN CTX in the presence of mtDNA” value in the data set with PMN [1] is on record as “rescued”. Besides, the “Activation of HDAC6” value on HDAC6 is “blocks activation of HDAC6”.
